Read-outs that look alike come from different tables or passages of the source. Where only a bound is given, the exact number is not on record here.

In general, inhibition refers to the change of the read-out against control, counted positive when it falls. A word on the IC50: it is the concentration that inhibits the measured activity by half. As a reminder, the Kd is the concentration at which binding is half-saturated.

For test [1], the target named is T1, rabbit TIM (Oryctolagus cuniculus, UniProt P00939).
T1 construct: made in house; host or cells: Escherichia coli
Put plainly: Selectivity assay, inhibition of rabbit TIM. The note with it: read-out: inhibition against rabbit TIM. Format: biochemical. The procedure:
(§1) Expression and purification of proteins: FhTIM, RabbitTIM and HsTIM were expressed in Escherichia coli and purified as described in the literature[31],[37]. After purification, the enzyme, dissolved in 100 mM triethanolamine, 10 mM EDTA and 1 mM dithiothreitol (pH 8), was precipitated with ammonium sulfate (75% saturation) and stored at 4 °C. Before use, extensive dialysis against 100 mM triethanolamine/10 mM EDTA (pH 7.4) was performed. Protein concentration was determined by absorbance at 280 nm for FhTIM (ε = 33,460 M^−1cm^−1) and for RabbitTIM and HsTIM (ε = 33,460 M^−1cm^−1). Enzymatic activity was determined following the conversion of glyceraldehydes-3-phosphate into dihydroxyacetone phosphate in a coupled enzyme assay. The decrease in absorbance at 340 nm was followed in a multiplate reader VarioskanTM Flash Multimode Reader (Thermo ScientificTM, Waltham, MA, USA) at 38 °C. The reaction mixture (1 mL, pH 7.4) contained 100 mM triethanolamine, 10 mM EDTA, 0.2 mM NADH, 1 mM glyceraldehydes-3-phosphate and 0.9 units of α-glycerol phosphate dehydrogenase. The reaction was initiated by the addition of 5 ng/mL of the TIM of interest. For the inhibition studies, TIM was incubated at a concentration of 5 mg/mL in a buffer containing 100 mM triethanolamine, 10 mM EDTA, pH 7.4 and 10% of DMSO at 37 °C for 1 h. The mixture also contained the compounds, dissolved in DMSO, at the indicated concentrations. After 1 h, 10 µL were withdrawn and added to a final volume of 100 µL of the reaction mixture for the activity assay. The inhibition assay was performed in a 96-well microplate. None of the molecules tested here affected the activity of α-glycerol phosphate dehydrogenase, the enzyme used in the coupled assay. The IC50 value was taken as the concentration of drug needed to reduce the enzymatic activity to 50% by analysis using OriginLab8.5® sigmoidal regression (% of enzymatic activity vs. the logarithm of the compound concentration). The experiments were performed in triplicate in two independent experiments.

The subject of test [2] is S. mansoni somules. Put plainly: S. mansoni somules phenotypic screen in vitro. Format: cell-based, Schistosoma mansoni. The note with it: for S. mansoni somules severity score: score 0 to maximum 4; for SOMULES SEVERITY SCORE: Table 2S, 10 uM. An excerpt: (§2) The NMRI isolate of S. mansoni was maintained by passage through Biomphalaria glabrata snails and 3–5 week-old, female Golden Syrian hamsters (Charles River, San Diego, CA) as intermediate and definite hosts, respectively. A dose of 600 infective larvae (cercariae) was used to infect hamsters. The acquisition, preparation and in vitro maintenance of S. mansoni post-infective larvae (schistosomula or somules) and adults have been already described[5],[50],[51]. Vertebrate animal maintenance and handling at the University of California San Diego Animal Care Facility were in accordance with protocols approved by the university’s Institutional Animal Care and Use Committee (IACUC).
Phenotypic screens with somules were performed as described[5],[50],[51]. Initially, 100 μL Basch medium, 100 U/ml penicillin, […] streptomycin, 4% heat-inactivated FBS (Corning Mediatech) and 1 μl compound in DMSO were added to clear, 96-well round-bottomed plates (Costar cat.# 3367). Then, 100 μL of the same medium containing 40–50 somules was added to mix the compound with somules (final concentration of DMSO was 0.5%). Assay plates were placed into plastic boxes humidified with wet tissue and then incubated at 37 °C in a 5% CO2 environment. Somules phenotypes were recorded every 24 h up to 72 h using an inverted microscope (Zeiss Axiovert 40 C).
(§3) Schistosome phenotypic responses were recorded employing a series of ‘descriptors,’ such as rounding, degeneration, overactivity, loss of translucency and changes in motility, as described previously[5],[50],[51],[53]. To allow for comparisons of compound activity, each descriptor was awarded a value of 1 and these were added up to a maximum ‘severity score’ of 4. Evidence of degeneracy or death was awarded the maximum score of 4. Scores were averaged across duplicate wells for each compound (see details in the supporting information).

Test [3] relates to newly excysted juvenile (NEJ) F. hepatica. Put plainly: In vitro NEJ treatment. Format: cell-based, Fasciola hepatica. The conditions noted are these: Fasciola hepatica, NEJ. The procedure: F. hepatica metacercariae were acquired from DILAVE, MGAP, Uruguay. NEJ were obtained by in vitro excystement as previously described with minor modifications. Briefly, metacercariae were incubated with 1% sodium hypochlorite for 5 min at room temperature to remove the outer cyst wall and then washed exhaustively with PBS 200 U/mL Penicillin G sulfate, […] streptomycin sulfate, 500 ng/mL amphotericin B, 10 mM HEPES, counted and divided into groups of around 20 parasites that were transferred to 12 wells tissue culture plates. Parasites were maintained at 37 °C, 5% CO2 in modified Basch’s medium. At day 1, compounds were added at the indicated concentrations and 0.5% DMSO was added to control groups; each condition was tested in duplicate. NEJ behavior was monitored under a light microscope (Olympus BX41), every day each well was recorded for a minute in order to assess parasite motility and registered using the following score: 3- normally active; 2- reduced activity (sporadic movement); 1- immotile (dead)[48].

For test [4], the target named is Fasciola hepatica TIM (FhTIM) (Fasciola hepatica, UniProt S4UI50). Put plainly: Inhibition of recombinant FhTIM, coupled enzyme assay. The class given is biochemical. An outline of the steps:
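E. coli-expressed FhTIM preincubated with compound 1 h at 37 °C in 100 mM triethanolamine, 10 mM EDTA, pH 7.4, 10% DMSO. Aliquot diluted into coupled assay (1 mM glyceraldehyde-3-phosphate, 0.2 mM NADH, α-glycerol phosphate dehydrogenase, pH 7.4) with NADH decrease at 340 nm, 38 °C. Triplicate, two independent experiments.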

The target in test [5] is T2, human (HsTIM) (Homo sapiens, UniProt P60174).
T2 construct: made in house; host or cells: Escherichia coli
The test is described as follows: Selectivity assay, inhibition of HsTIM. The class given is biochemical. The conditions noted are these: read-out: inhibition against HsTIM. The procedure:
as §1

Test [6] has as its target FhTIM (Fasciola hepatica, UniProt S4UI50). The test is described as follows: Microscale thermophoresis (MST) binding to FhTIM. The conditions noted are these: 24 °C. On the procedure:
MST experiments were performed according to the NanoTemper technologies protocol in a Monolith NT.115 (red/blue) instrument (NanoTemper Technologies, München, Germany[36]). With this technique, the diffusion behavior of a labeled protein is measured when an infrared light excites the movement of the protein in capillaries. This behavior is the combination of two effects: the fast, local environment-dependent responses of the fluorophore to the temperature jump and the slower diffusive thermophoresis fluorescence changes. It will be modified when the protein is complexed with increasing amounts of unlabeled partners, leading to titration curves that can be fit for Kd estimation. In practice, FhTIM was labeled with the Monolith His-Tag Labeling Kit RED-tris-NTA (NanoTemper Technologies, München, Germany), as described by the manufacturer. The experiments were performed using 20% and 40% MST power and between 20–80% LED power at 24 °C. The MST traces were recorded using the standard parameters: 5 s MST power off, 30 s MST power on, and 5 s MST power off. The compounds were used at high concentrations (around 5 mM) in the bindings check assay with DMSO at 5% v/v. If the binding check was positive, then the affinity determination was performed with the same experimental settings, with serial 2x dilutions of the compound of interest.
For orientation: In MST a laser heats a spot of the sample, and binding alters the fluorescence response.

Test [7] deals with S. mansoni adults. The test is described as follows: S. mansoni adults phenotypic screen ex vivo. Format: cell-based, Schistosoma mansoni. The conditions noted are these: Table 2S, 5 uM.
Description: as §2
Phenotypic screens with 42-day-old, adult parasites were performed in 24-well plates (Costar cat.# 3526) containing the above medium and approximately five adult males and two females per well. Compound was added in a volume of up to 1 μL DMSO at a concentration of 5 µM (0.05% DMSO final). Assay plates were incubated at 37 °C in a 5% CO2 environment. Parasite phenotypes were recorded at 4, 8 and 24 h using a Zeiss Axiovert 40 C.
as §3

The mark [8] stands for this setting: Figure 1, ranges of inhibitory activity, read-out: IC50 range.
[9] abbreviates: recombinant FhTIM, 1 h incubation with compound at 37 °C, read-out: IC50.
Setting [10] is: Table 1S, screening of 340 compounds in FhTIM, table head prints no unit, µM per b8/b9, read-out: IC50.

T2 sequence (P60174 whole entry): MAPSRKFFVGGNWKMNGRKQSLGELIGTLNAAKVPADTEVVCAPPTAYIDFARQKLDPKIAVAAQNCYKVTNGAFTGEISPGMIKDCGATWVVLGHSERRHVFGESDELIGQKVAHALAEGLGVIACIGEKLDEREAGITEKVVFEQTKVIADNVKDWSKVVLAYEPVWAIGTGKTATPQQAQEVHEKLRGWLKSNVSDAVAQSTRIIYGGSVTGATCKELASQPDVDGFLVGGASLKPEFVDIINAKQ
T1 sequence (P00939 whole entry): as the sequence (P60174 whole entry) above, with Q20K, S21N, G27T, A119S counted along it
Chain of FhTIM (S4UI50 entry or part of it): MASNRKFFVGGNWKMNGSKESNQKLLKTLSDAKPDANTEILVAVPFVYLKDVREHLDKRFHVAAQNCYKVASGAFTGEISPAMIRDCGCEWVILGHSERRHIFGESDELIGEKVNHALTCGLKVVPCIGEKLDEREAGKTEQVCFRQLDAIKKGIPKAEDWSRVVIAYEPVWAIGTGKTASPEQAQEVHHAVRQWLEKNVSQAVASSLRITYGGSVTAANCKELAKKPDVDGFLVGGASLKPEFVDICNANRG
Chain of Fasciola hepatica TIM (FhTIM) (S4UI50 entry or part of it): as above

With `O=C1C(=Cc2ccc([N+](=O)[O-])cc2)C(=O)N(CCc2ccccc2)S(=O)(=O)N1CCc1ccccc1` [Compound 110], the inhibition at 100 µM in test [1] and in test [5] was under 20% each time. The “S. mansoni somules severity score” value in test [2] (Table 2, time not given) is reported as 0. The “SOMULES SEVERITY SCORE” value in test [2] (24 h), in test [2] (48 h) and in test [2] (3d) was 0 in each case. Also, the IC50 in test [3] (incubation time 30 h) was 5 ± 2 µM; in test [4] (setting [8]) it was under 50 µM; in test [4] (setting [9]) it was 7 ± 1 µM.

For the molecule `O=C1C(=Cc2ccc([N+](=O)[O-])s2)C(=O)N(Cc2ccccc2)S(=O)(=O)N1Cc1ccccc1` [Compound 114], the equilibrium dissociation constant (Kd) in test [6] was found to be 664 ± 25 µM. Besides, the “S. mansoni somules severity score” value in test [2] (Table 2, 72 h) is on record as 4 (72 h). Moreover, the “SOMULES SEVERITY SCORE” value in test [2] (24 h) was found to be 0; in test [2] (48 h) it was 3; in test [2] (3d), 4. The IC50 in test [3] (incubation time 4 h) is 6.5 ± 0.6 µM; in test [4] (setting [8]) it was under 50 µM; in test [4] (setting [9]), 25 ± 8 µM.

On to `O=C1C(=Cc2ccc([N+](=O)[O-])s2)C(=O)N(CCc2ccccc2)S(=O)(=O)N1CCc1ccccc1` [Compound 115], for which the Kd in test [6] came out at 120 ± 12 µM. Moreover, the inhibition at 100 µM in test [1] and in test [5] was under 20% in each case. Moreover, the “S. mansoni somules severity score” value in test [2] (Table 2, 72 h) was 4 (72 h). Further, the “SOMULES SEVERITY SCORE” value is 2 in test [2] (24 h), 3 in test [2] (48 h) and 4 in test [2] (3d). Further, the IC50 in test [3] (incubation time 72 h) was 7 ± 2 µM; in test [4] (setting [8]), under 50 µM; in test [4] (setting [9]) it was 8 ± 2 µM.

`O=C1C(=Cc2ccc([N+](=O)[O-])o2)C(=O)N(Cc2ccccc2)S(=O)(=O)N1Cc1ccccc1` [Compound 116]: the 50% inhibitory concentration (IC50) in test [3] (incubation time 72 h) is over 50 µM; in test [4] (setting [8]) it was under 50 µM; in test [4] (setting [10]) it was under 25 µM; in test [4] (setting [9]), 5 ± 1 µM.

In the case of `CCCCCCN1C(=O)C(=Cc2ccc([N+](=O)[O-])cc2)C(=O)N(CCCCCC)S1(=O)=O` [Compound 128], in test [6], the Kd turned out to be 120 ± 10 µM. Besides, the inhibition at 100 µM in test [1] and in test [5] was under 20% in each case. Besides, the IC50 in test [3] (incubation time 12 h) was 10 ± 1 µM; in test [4] (setting [8]) it was under 50 µM; in test [4] (setting [10]), under 25 µM; in test [4] (setting [9]) it was 5 ± 1 µM.

In the case of `C=CCN1C(=O)CSC1=NN=Cc1ccc2c(c1)[n+]([O-])c(-c1ccccc1)c(C(=O)Nc1ccccc1)[n+]2[O-]` [Compound 303], the “ADULTS SEVERITY SCORE” value in test [7] (4 h), in test [7] (8 h) and in test [7] (24 h) was 0 in each case. Also, the “SOMULES SEVERITY SCORE” value was found to be 0 in test [2] (24 h), 4 in test [2] (48 h) and 4 in test [2] (3d). For the same molecule, the IC50 in test [4] (setting [10]) is over 100 µM.

On to `C=CCNC(=S)NN=Cc1ccc2c(c1)[n+]([O-])c(C(=O)Nc1ccccc1)c(C)[n+]2[O-]` [Compound 490], for which the “SOMULES SEVERITY SCORE” value in test [2] (24 h), in test [2] (48 h) and in test [2] (3d) was 0 each time. In addition, the IC50 in test [4] (setting [10]) was over 100 µM.

Turning to `COc1cc(/C=C/C(=O)CC(=O)/C=C/c2ccc(O)c(OC)c2)ccc1O` [Compound 906], the half-maximal inhibitory concentration (IC50) was 7 ± 1 µM in test [3] (incubation time 4 h); 35 ± 4 µM in test [4] (IC50 (µM), recombinant FhTIM, 1 h incubation with compound at 37 °C); under 50 µM in test [4] (IC50 range, Figure 1, ranges of inhibitory activity).

As for `CCCCN1C(=O)C(=Cc2ccc([N+](=O)[O-])s2)C(=O)N(CCCC)S1(=O)=O` [Compound 1148], the “SOMULES SEVERITY SCORE” value in test [2] (24 h) was 0; in test [2] (48 h) it was 1; in test [2] (3d) it was 0. Further, the IC50 is 12 ± 2 µM in test [3] (incubation time 4 h), under 50 µM in test [4] (setting [8]) and 15 ± 5 µM in test [4] (setting [9]).

`O=C(C=Cc1ccc2ccccc2c1)c1c(O)ccc2ccccc12` [Compound 1254]: the “SOMULES SEVERITY SCORE” value is recorded as 0 in test [2] (24 h), 2 in test [2] (48 h) and 0 in test [2] (3d). In addition, the 50% inhibitory concentration (IC50) in test [4] (setting [9]) came out at 50 ± 5 µM.

Molecule `CS(=O)(=O)c1nc2cc(Oc3cccc(Cl)c3Cl)c(Cl)cc2[nH]1` [Compound 1293, 6-chloro-5-(2,3-dichlorophenoxy)-2-(methylsulfonyl)-1H-benzo[d]imidazole, reference compound] gave an IC50 in test [3] (incubation time 48 h) of 50 µM.

Values taken from paper PMC7018972, “Novel and selective inactivators of Triosephosphate isomerase with anti-trematode activity” (Scientific Reports, 2020).
